Measured values taken from patent US20110046368A1, “LIGANDS OF 5-HT6 RECEPTORS, A PHARMACEUTICAL COMPOSITION, METHOD FOR THE PRODUCTION AND USE THEREOF” (priority 2006, published 2011).
Read-outs that look alike come from different tables or passages of the source.

Molecular target: T1, serotonin 5-HT6 receptors (Homo sapiens, UniProt P50406)
T1 construct: expressed in transfected cells; host or cells: HeLa cells (membranes)
Assay: [3H]LSD displacement from 5-HT6 receptors expressed in HeLa cell membranes
Type: binding
Details: for Interaction efficiency of compounds of the general formula 1 with 5-HT6 receptor, %: displacement of 1.5 nM [3H]LSD, tested compounds at 10 mkM, 2 hr at 37° C.
Description: Investigation of ligand activity of azaheterocyclic compounds of the general formula 1 to 5-HT6 receptor. A focused library, including 3537 azaheterocyclic compounds of the general formula 1, their geometric isomers and pharmaceutically acceptable salts were tested for ligand activity to 5-HT6 receptor. Some examples of the tested azaheterocyclic compounds of the general formula 1 are represented in Tables 1-3, including: pyrrolo[4,3-b]indoles 1.2, 1.3 (Table 1), γ-carbolines 1.5, 1.6, 1.7 (Table 2) and azepino[4,3-b]indoles 1.10, 1.12, 1.13 (Tables 3). Ligand activity was determined by the ability of azaheterocyclic compounds of the general formula 1 to displace concurrently tritium-labelled diethyl […] of lysergic acid ([^3H]LSD), specifically bound to serotonin 5-HT6 receptors, which are expressed in HeLa cells membranes [Monsma F J Jr, Shen Y, Ward R P, Hamblin M W and Sibley D R (1993). Cloning and expression of a novel serotonin receptor with high affinity for tricyclic psychotropic drugs. Mol. Pharmacol. 43:320-3271. Cells membranes were incubated with 1.5 nM [^3H]LSD for 2 hr at 37° C. without and in the presence of tested compounds of 10 mkM concentration in the medium comprising: 50 mM Tris-HCl, pH 7.4, 150 mM NaCl, 2 mM ascorbic acid and 0.001% of bovine serum albumin. Nonspecific binding of [^3H]LSD was determined in the presence of 5 mkM of serotonin (5-HT). After incubation membrane suspensions were filtered through glass microfiber filters GF/A (Millipor, USA) and the residual radioactivity was measured by scintillation counter Microbeta 1840 (PerkinElmer). Investigated compounds interacted effectively with 5-HT6 receptor.
Measurements were carried out as it is described in example 1, except that the tested compounds were taken in various concentrations and % of displacement of [^3H]LSD was plotted as a function of compound's concentration (FIG. 1), on the basis of which IC50 (concentration of halfmaximum blocking of [^3H]LSD binding) values characterizing the seeming affinity of substituted azaheterocyclic compounds of the general formula 1 to 5-HT6 receptor were calculated (Table 5).

[1] = [3H]LSD displacement at various compound concentrations, HeLa cell membranes, read-out: IC50 (concentration of halfmaximum blocking of [3H]LSD binding), seeming affinity to 5-HT6 receptor

T1 sequence (P50406 whole entry): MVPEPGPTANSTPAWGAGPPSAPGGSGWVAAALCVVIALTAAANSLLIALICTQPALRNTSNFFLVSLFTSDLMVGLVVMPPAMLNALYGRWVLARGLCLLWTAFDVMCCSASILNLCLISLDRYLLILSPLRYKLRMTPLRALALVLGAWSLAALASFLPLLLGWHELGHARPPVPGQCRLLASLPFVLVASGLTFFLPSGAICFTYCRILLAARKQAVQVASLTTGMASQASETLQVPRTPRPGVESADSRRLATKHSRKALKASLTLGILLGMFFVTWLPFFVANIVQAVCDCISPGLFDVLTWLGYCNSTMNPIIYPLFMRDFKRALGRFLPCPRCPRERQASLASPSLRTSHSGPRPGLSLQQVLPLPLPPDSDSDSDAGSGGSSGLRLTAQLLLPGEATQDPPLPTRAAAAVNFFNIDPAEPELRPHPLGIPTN

Compound	Interaction efficiency of compounds of the general formula 1 with 5-HT6 receptor, % (HeLa cell membranes)	IC50 [1]	IC50
Cc1ccc(S(=O)(=O)n2c3c(c4cc(C)ccc42)CN(C)C3)cc1 [1.2(39)]	77%	–	–
Cc1ccc2c(c1)[C@@H]1CN(C)C[C@@H]1N2CCc1ccc(C)nc1 [1.3(9)]	27%	–	–
CN1CCc2c(c3ccccc3n2Cc2ccccc2)C1 [1.5(18)]	71%	–	–
Cc1ccc2c(c1)c1c(n2CCc2ccc(C)nc2)CCN(C)C1 [1.5(20)]	100%	74 nM	–
Cc1ccc2c(c1)C1CN(C)CCC1N2C(=O)c1ccccc1 (centres unmarked) [1.6(6)]	52%	–	–
Cc1ccc2c(c1)C1CN(C)CCC1N2S(=O)(=O)c1nc2cc(C)nc(C)n2n1 (centres unmarked) [1.6(22)]	82%	–	–
Cc1ccc2c(c1)[C@@H]1CN(C)CC[C@@H]1N2C(=O)Nc1cccc(C(F)(F)F)c1 [1.7(1)]	47%	–	–
Cc1ccc2c(c1)c1c(n2CCc2ccccn2)CCCN(C)C1 [1.10(49)]	88%	–	–
Cc1ccc(CCn2c3c(c4cc(C)ccc42)CN(C)CCC3)nc1 [1.10(50)]	84%	1250 nM	–
Cc1ccc2c(c1)c1c(n2CCc2ccncc2)CCCN(C)C1 [1.10(51)]	84%	1060 nM	–
Cc1ccc2c(c1)c1c(n2CCc2cccnc2)CCCN(C)C1 [1.10(53)]	79%	738 nM	–
Cc1ccc2c(c1)[C@@H]1CNCCC[C@@H]1N2CCc1cccnc1 [1.12(12)]	84%	–	–
Cc1ccc2c(c1)[C@@H]1CNCCC[C@@H]1N2CCc1ccc(C)nc1 [1.12(13)]	76%	–	–
Cc1ccc2c(c1)[C@@H]1CN(C)CCC[C@H]1N2CCc1ccc(C)nc1 [1.13(3)]	93%	–	–
Cc1ccc2c(c1)[C@@H]1CN(C)CCC[C@H]1N2CCc1cccnc1 [1.13(13)]	93%	–	787 nM
